Assay results as given in ChEMBL document CHEMBL1150833, “Five novel highly oxygenated diterpenes of Orthosiphon stamineus from Myanmar” (2001).
Values after ≈ are worked out from the molar mass of the structure shown.

Legend:
HT-1080 = test: Antiproliferative activity against human HT1080 cells after 4 days by MTT assay; format: functional; settings: HT-1080, 96 h, read-out: ED50 (the source's name)
[1] = Antiproliferative activity against mouse Colon 26-L5 cells after 4 days by MTT assay; format: functional; settings: 96 h, read-out: ED50 (the source's name)

Compound	EC50 (HT-1080) [µg/mL]	EC50 [1] [µg/mL]
C=C[C@@]1(C)CC(=O)[C@H]2[C@](O)(C1=O)[C@H](O)C[C@H]1C(C)(C)[C@H](OC(=O)c3ccccc3)[C@H](OC(C)=O)[C@H](OC(=O)c3ccccc3)[C@@]12C [ORTHOSIPHOL N]	18.6 (≈ 29.4 µM)	35.1 (≈ 55.5 µM)
COc1ccc(-c2cc(=O)c3c(O)c(OC)c(OC)cc3o2)cc1O [EUPATORIN]	8.8 (≈ 25.6 µM)	3.7 (≈ 10.7 µM)
C=C/C(=C\[C@H]1C(=O)[C@H](OC(C)=O)C[C@H]2C(C)(C)[C@H](O)[C@H](OC(C)=O)[C@H](OC(=O)c3ccccc3)[C@]12C)C(C)=O [NORSTAMINONE A]	23.2 (≈ 42.9 µM)	12.8 (≈ 23.7 µM)
C=C[C@@]1(C)C[C@@H](OC(=O)c2ccccc2)[C@H]2[C@](O)(C1=O)[C@H](OC(C)=O)C[C@H]1C(C)(C)[C@H](O)[C@H](O)[C@H](OC(=O)c3ccccc3)[C@@]12C [ORTHOSIPHOL K]	21.8 (≈ 34.3 µM)	13.8 (≈ 21.7 µM)
COc1cc(/C=C/C(=O)OCCc2ccc(O)cc2)ccc1O	47.1 (≈ 150 µM)	33.7 (≈ 107 µM)
COc1ccc(-c2cc(=O)c3c(OC)c(OC)c(OC)cc3o2)cc1	4.5 (≈ 13.1 µM)	8.1 (≈ 23.7 µM)
C=C[C@@]1(C)CC(=O)[C@H]2[C@](O)(C1=O)[C@H](OC(C)=O)C[C@H]1C(C)(C)[C@H](O)[C@H](OC(C)=O)[C@H](OC(=O)c3ccccc3)[C@@]12C [ORTHOSIPHOL M]	81.7 (≈ 143 µM)	31.3 (≈ 54.9 µM)
C=C[C@H]1[C@@H](OC(=O)c2ccccc2)[C@H]2[C@](O)(C(=O)[C@@]1(C)O)[C@H](OC(C)=O)C[C@H]1C(C)(C)[C@H](O)[C@H](OC(C)=O)[C@H](OC(=O)c3ccccc3)[C@@]12C [NEOORTHOSIPHOL A]	96.3 (≈ 139 µM)	38.8 (≈ 56 µM)
COc1ccc(-c2cc(=O)c3cc(OC)c(OC)c(OC)c3o2)cc1OC	74.8 (≈ 201 µM)	31.4 (≈ 84.3 µM)
O=c1[nH]cc(F)c(=O)[nH]1 [FLUOROURACIL]	0.48 (≈ 3.69 µM)	0.015 (≈ 0.115 µM)
C=C[C@@]1(C)C[C@@H](OC(=O)c2ccccc2)[C@H]2[C@](O)(C1=O)[C@H](OC(C)=O)C[C@H]1C(C)(C)[C@H](O)[C@H](OC(C)=O)[C@H](OC(=O)c3ccccc3)[C@@]12C [ORTHOSIPHOL A]	> 100	63.1 (≈ 93.2 µM)
C=C[C@]1(C)C(=O)[C@]2(O)[C@H](OC(C)=O)C[C@H]3C(C)(C)[C@H](O)[C@H](OC(C)=O)[C@H](OC(=O)c4ccccc4)[C@]3(C)[C@H]2[C@H](OC(=O)c2ccccc2)[C@@H]1O [ORTHOSIPHOL L]	20.6 (≈ 29.7 µM)	24.7 (≈ 35.7 µM)
COc1ccc(-c2cc(=O)c3c(O)c(O)c(OC)cc3o2)cc1 [LADANEIN]	3 (≈ 9.55 µM)	2.3 (≈ 7.32 µM)
C=C[C@@]1(C)C[C@@H](OC(=O)c2ccccc2)[C@H]2[C@](O)(C1=O)[C@H](OC(C)=O)C[C@H]1C(C)(C)[C@H](OC(C)=O)[C@H](O)[C@H](OC(=O)c3ccccc3)[C@@]12C [ORTHOSIPHOL B]	57.9 (≈ 85.6 µM)	28.1 (≈ 41.5 µM)
